In US20200246298A1, “Composition for Preventing or Treating Asthma Comprising Fatty Acid as Active Ingredient” (Dongshin University Industry-Academy Cooperation, priority 2019, published 2020):

Tests used:
Format in all cases: in vivo, BALB/c mice
[1] = test system: WBC cells, eosinophils, neutrophils, lymphocytes and monocytes in BALF; assay: Blood cell analysis in BALF of mice with OVA-induced asthma; details: for proliferation of leukocytes, neutrophils, lymphocytes and monocytes in BALF and serum: summary statement, ovalbumin-induced asthma
Experimental: This experiment was performed in order to examine the anti-asthmatic effects of fatty acids after inducing asthma in experimental animals by ovalbumin (OVA). Experimental animals used in the experiment were chosen because of the accumulated abundant test data and their ease of analysis and evaluation of experimental results. BALB/c mice, which are specific pathogen […] (SPF) mice, were chosen based on the related literature. Experimental animals were provided in the minimum number so as to be able to analyze experimental results and were divided into a total of 9 groups according to the substance to be administered, and each group consisted of 8 animals. […] In test groups, the animals determined to be healthy during the acclimation period were ranked by measuring the weight, and were randomly grouped so that the average weight of each group was uniform. The animals were divided into a total of 9 groups: a control group; a control group with OVA-induced asthma; a positive control group; groups administered with each of 50 mg/kg, 125 mg/kg and 250 mg/kg of oleic acid; and groups administered with each of 5 mg/kg, 25 mg/kg and 50 mg/kg of palmitic acid. The animals were sensitized via intraperitoneal injection of OVA once a week for 2 weeks after the acclimation period. During 5 days of week 3, dexamethasone (DEX) and the test substances oleic acid and palmitic acid were orally administered in the morning and 5% OVA solution was inhaled in the afternoon. The test substance was orally administered in an amount of 28 μL per weight (g) of the experimental animal, and OVA for sensitization was administered in a constant amount regardless of the weight. After 5 days of administration, autopsy was performed the next day. Intraperitoneal administration: based on the related literature, 20 μg OVA+1 mg aluminum hydroxide+500 μL/head of normal saline were administered. For a total of 50 animals to be administered, 1000 μg OVA+50 mg aluminum hydroxide+25 mL of normal saline were prepared. The animals were sensitized by intraperitoneal injection once a week for 2 weeks, and injected with the test substance by a 1 mL syringe. Oral administration: the control group and the asthma-induced control group were administered with saline, and oleic acid and palmitic acid were used in dissolved in saline at various concentrations. Dexamethasone was dissolved in saline by stirring and prepared according to a final dose. All preparations were prepared on the day of administration. Inhalation: a solution containing 1 g OVA+20 mL normal saline (5% OVA solution) was prepared, stirred and administered. A forced inhalation was performed using a nebulizer (OMRON, NE-U17) for 5 days, and systemic exposure was performed using an inhalation exposure chamber. Collection of bronchoalveolar lavage fluid (BALF): the anesthetized animal tissue was opened with tweezers to secure the trachea, and then a surgical thread was placed underneath and loosely tied, and the trachea was slightly cut with scissors. Then, 0.2 mL of PBS was placed into a syringe with the needle removed, and the syringe was inserted into a sonde and then injected into the trachea. After injection, BALF was collected by injecting PBS again. 0.2 mL of BALF was collected three times in the same manner. The first BALF was placed in tube No. 1, the second and third BALFs were placed in tube No. 2. The blood cell analysis in BALF were performed (Lee et al., 2017; Bang et al., 2015). One day after the final treatment, the mice were anesthetized with intraperitoneal injections of 50 mg/kg Zoletin (Virbac, Fort Worth, Tex., USA), and their tracheas were cannulated with disposable animal feeding needles. Lavages were performed with three 0.4 ml aliquots of cold phosphate-buffered saline (PBS). The BALF samples were collected and immediately centrifuged at 3000 rpm for 5 minutes at 4° C. (Sorvall Legend Micro 17R, Thermo Fisher Scientific, Inc. Marietta, Ohio, USA). […]

IL-4 = assay: ELISA analysis in lung tissue, OVA-induced asthma; details: palmitic acid 5, 25, 50 mg/kg oral, particularly the 50 mg/kg group, FIG. 22
Experimental: (§1) In test groups, the animals determined to be healthy during the acclimation period were ranked by measuring the weight, and were randomly grouped so that the average weight of each group was uniform. The animals were divided into a total of 9 groups: a control group; a control group with OVA-induced asthma; a positive control group; groups administered with each of 50 mg/kg, 125 mg/kg and 250 mg/kg of oleic acid; and groups administered with each of 5 mg/kg, 25 mg/kg and 50 mg/kg of palmitic acid. The animals were sensitized via intraperitoneal injection of OVA once a week for 2 weeks after the acclimation period. During 5 days of week 3, dexamethasone (DEX) and the test substances oleic acid and palmitic acid were orally administered in the morning and 5% OVA solution was inhaled in the afternoon. The test substance was orally administered in an amount of 28 μL per weight (g) of the experimental animal, and OVA for sensitization was administered in a constant amount regardless of the weight. After 5 days of administration, autopsy was performed the next day. To analyze the levels of IFN-γ, IL-12p40, IL-4, IL-5, IL-6, and TNF-α in lung tissue, OptEIA mouse ELISAs were purchased from BD Biosciences. The IL-13 levels were assessed using the AbFrontier Cymax mouse FT ISA kit (AbFrontier, Seoul, Korea). All assays were performed according to the manufacturers' guidelines. All lung samples were prepared by a lysis buffer made with a protease inhibitor cocktail and an RIPA buffer (Thermo Fisher Scientific). Aliquots of lung tissue from all groups were weighed and homogenized with lysis buffer. They were then centrifuged at 8,200 rpm for 15 minutes, and the supernatants were harvested and measured using a microplate reader (EZ Read 400, Biochrom, Cambourne, UK).

TNF-α = assay: ELISA analysis in lung tissue, OVA-induced asthma; details: palmitic acid 5, 25, 50 mg/kg oral, particularly the 50 mg/kg group, FIG. 25
Experimental: as §1

IL-6 = assay: ELISA analysis in lung tissue, OVA-induced asthma; details: palmitic acid 5, 25, 50 mg/kg oral, particularly the 50 mg/kg group
Experimental: as §1

IFN-γ = assay: ELISA analysis in lung tissue, OVA-induced asthma; details: palmitic acid 5, 25, 50 mg/kg oral, vs OVA, FIG. 20
Experimental: as §1

IL-12p40 = assay: ELISA analysis in lung tissue, OVA-induced asthma; details: palmitic acid 5, 25, 50 mg/kg oral, particularly the 25 mg/kg group, FIG. 21
Experimental: as §1

IL-13 = assay: ELISA analysis in lung tissue, OVA-induced asthma; details: palmitic acid 5, 25, 50 mg/kg oral, particularly the 50 mg/kg group, FIG. 24
Experimental: as §1

IL-5 = assay: ELISA analysis in lung tissue, OVA-induced asthma; details: palmitic acid 5, 25, 50 mg/kg oral, particularly the 5 mg/kg group, FIG. 23
Experimental: as §1

Row | SMILES | number of differential cells in BALF ([1]; oleic acid 50, 125, 250 mg/kg oral, 5 days, FIG. 1) | number of WBC cells ([1]; oleic acid 50, 125, 250 mg/kg oral, 5 days, vs OVA-sensitized group, FIG. 2) | number of eosinophils (EOs) ([1]; oleic acid 50, 125, 250 mg/kg oral, 5 days, vs OVA-sensitized group, FIG. 3) | number of neutrophils (NEs) ([1]; oleic acid 50, 125, 250 mg/kg oral, 5 days, vs OVA-sensitized group, FIG. 4) | number of lymphocytes (LYs) ([1]; oleic acid 50, 125, 250 mg/kg oral, 5 days, vs OVA-sensitized group, FIG. 5) | number of monocytes (MOs) ([1]; oleic acid 50, 125, 250 mg/kg oral, 5 days, vs OVA-sensitized group, FIG. 6) | proliferation of leukocytes, neutrophils, lymphocytes and monocytes in BALF and serum [1] | expression level of IL-4 (IL-4) | expression level of TNF-α (TNF-α) | expression level of IL-6 (IL-6) | expression level of IFN-γ (IFN-γ) | expression level of IL-12p40 (IL-12p40) | expression level of IL-13 (IL-13) | expression level of IL-5 (IL-5) | number of differential cells in BALF ([1]; palmitic acid 5, 25, 50 mg/kg oral, 5 days, FIG. 7) | number of WBC cells ([1]; palmitic acid 5, 25, 50 mg/kg oral, 5 days, vs OVA-sensitized group, FIG. 8) | number of neutrophils (NEs) ([1]; palmitic acid 5, 25, 50 mg/kg oral, 5 days, vs OVA-sensitized group, FIG. 10) | number of monocytes (MOs) ([1]; palmitic acid 5, 25, 50 mg/kg oral, 5 days, vs OVA-sensitized group, FIG. 12)
1 | CCCCCCCC/C=C\CCCCCCCC(=O)O [oleic acid] | dose-dependently decreased | dose-dependently decreased | dose-dependently decreased | dose-dependently decreased | dose-dependently decreased | dose-dependently decreased | inhibit |  |  |  |  |  |  |  |  |  |  | 
2 | CCCCCCCCCCCCCCCC(=O)O [palmitic acid] |  |  |  |  |  |  | inhibit | decreased | decreased | decreased | dose-dependently decreased | decreased | decreased | decreased | dose-dependently decreased | dose-dependently decreased | dose-dependently decreased | dose-dependently decreased
